Molecular target: T1, GABA A α5 (α5β3γ2) (Homo sapiens, UniProt P18507+P31644)
T1 construct: expressed in transfected cells; host or cells: HEK293 (transiently transfected), membranes
Assay: [3H]flumazenil competition binding assay, human GABA A α5 receptors in HEK293 cells
Settings: competition for [3H]flumazenil (0.5 nM); HEK293 cells expressing human (transiently transfected) receptors; means of two determinations; read-out: hKi GABA A α5
Experimental: Membrane Preparation and Binding Assay
The affinity of compounds at GABA A receptor subtypes was measured by competition for [3H]flumazenil (85 Ci/mmol; Roche) binding to HEK293 cells expressing rat (stably transfected) or human (transiently transfected) receptors of composition α1β3γ2, α2β3γ2, α3β3γ2 and α5β3γ2.
Cell pellets were suspended in Krebs-tris buffer (4.8 mM KCl, 1.2 mM CaCl2, 1.2 mM MgCl2, 120 mM NaCl, 15 mM Tris; pH 7.5; binding assay buffer), homogenized by polytron for ca. 20 sec on ice and centrifuged for 60 min at 4° C. (50000 g; Sorvall, rotor: SM24=20000 rpm). The cell pellets were resuspended in Krebs-tris buffer and homogenized by polytron for ca. 15 sec on ice. Protein was measured (Bradford method, Bio-Rad) and aliquots of 1 mL were prepared and stored at −80° C.
Radioligand binding assays were carried out in a volume of […] (96-well plates) which contained […] of cell membranes, [3H]flumazenil at a concentration of 1 nM for α1, α2, α3 subunits and 0.5 nM for α5 subunits and the test compound in the range of […]. Nonspecific binding was defined by 10^−5 M diazepam and typically represented less than 5% of the total binding. Assays were incubated to equilibrium for 1 hour at 4° C. and harvested onto GF/C uni-filters (Packard) by filtration using a Packard harvester and washing with ice-cold wash buffer (50 mM Tris; pH 7.5). After drying, filter-retained radioactivity was detected by liquid scintillation counting. Ki values were calculated using Excel-Fit (Microsoft) and are the means of two determinations.
Representative test results, obtained by the above described assay measuring binding affinity to HEK293 cells expressing human (h) receptors, are shown in table 1 below.

Compound | Ki [nM]
O=C(N[C@H]1CCC[C@@H]1O)c1ccc(OCc2c(-c3ccc(Cl)cc3)noc2CO)nc1 (single isomer, unassigned) [Example 27, 6-[3-(4-Chloro-phenyl)-5-hydroxymethyl-isoxazol-4-ylmethoxy]-N-([1R,2R]-2-hydroxy-cyclopentyl)-nicotinamide or 6-[3-(4-Chloro-phenyl)-5-hydroxymethyl-isoxazol-4-ylmethoxy]-N-([1S,2S]-2-hydroxy-cyclopentyl)-nicotinamide] | 0.6
O=C(NCC(F)(F)F)c1ccc(OCc2c(-c3ccc(F)c(F)c3)noc2CO)nc1 [Example 31, 6-[3-(3,4-Difluoro-phenyl)-5-hydroxymethyl-isoxazol-4-ylmethoxy]-N-(2,2,2-trifluoro-ethyl)-nicotinamide] | 2.7
O=C(NCC(F)(F)C(F)(F)F)c1ccc(OCc2c(-c3ccc(F)c(F)c3)noc2CO)nc1 [Example 35, 6-[3-(3,4-Difluoro-phenyl)-5-hydroxymethyl-isoxazol-4-ylmethoxy]-N-(2,2,3,3,3-pentafluoro-propyl)-nicotinamide] | 6.8
O=C(NCC1CC1)c1ccc(OCc2c(-c3ccc(F)cc3)noc2CO)nc1 [Example 6, N-Cyclopropylmethyl-6-[3-(4-fluoro-phenyl)-5-hydroxymethyl-isoxazol-4-ylmethoxy]-nicotinamide] | 1.7
O=C(c1ccc(OCc2c(-c3ccccn3)noc2CO)nc1)N1CCS(=O)(=O)CC1 [Example 43, (1,1-Dioxo-1,6-thiomorpholin-4-yl)-[6-(5-hydroxymethyl-3-pyridin-2-yl-isoxazol-4-ylmethoxy)-pyridin-3-yl]-methanone] | 10.8
CCCCc1noc(CO)c1COc1ccc(C(=O)N2CCS(=O)(=O)CC2)cn1 [Example 55, [6-(3-Butyl-5-hydroxymethyl-isoxazol-4-ylmethoxy)-pyridin-3-yl]-(1,1-dioxo-thiomorpholin-4-yl)-methanone] | 50.5
O=C(NC1CCOCC1)c1ccc(OCc2c(-c3ccc(F)c(F)c3)noc2CO)nc1 [Example 29, 6-[3-(3,4-Difluoro-phenyl)-5-hydroxymethyl-isoxazol-4-ylmethoxy]-N-(tetrahydro-pyran-4-yl)-nicotinamide] | 2
O=C(c1ccc(OCc2c(-c3ccc(F)cn3)noc2CO)nc1)N1CCS(=O)(=O)CC1 [Example 56, (1,1-Dioxo-1,6-thiomorpholin-4-yl)-{6-[3-(5-fluoro-pyridin-2-yl)-5-hydroxymethyl-isoxazol-4-ylmethoxy]-pyridin-3-yl}-methanone] | 13.5
CC(C)(CO)NC(=O)c1ccc(OCc2c(-c3ccc(F)c(F)c3)noc2CO)nc1 [Example 34, 6-[3-(3,4-Difluoro-phenyl)-5-hydroxymethyl-isoxazol-4-ylmethoxy]-N-(2-hydroxy-1,1-dimethyl-ethyl)-nicotinamide] | 13.6
CC(C)(CO)NC(=O)c1ccc(OCc2c(-c3ccc(F)cc3)noc2CO)nc1 [Example 12, 6-[3-(4-Fluoro-phenyl)-5-hydroxymethyl-isoxazol-4-ylmethoxy]-N-(2-hydroxy-1,1-dimethyl-ethyl)-nicotinamide] | 10.1
O=C(NCCO)c1ccc(OCc2c(-c3ccccc3)noc2CO)nc1 [Example 2, N-(2-Hydroxy-ethyl)-6-(5-hydroxymethyl-3-phenyl-isoxazol-4-ylmethoxy)-nicotinamide] | 1.6
CC(C)(C)NC(=O)c1ccc(OCc2c(-c3ccc(F)c(F)c3)noc2CO)nc1 [Example 40, N-tert-Butyl-6-[3-(3,4-difluoro-phenyl)-5-hydroxymethyl-isoxazol-4-ylmethoxy]-nicotinamide] | 11.8
CC(NC(=O)c1ccc(OCc2c(-c3ccc(F)c(F)c3)noc2CO)nc1)C(F)(F)F (stereo not drawn) [Example 32, 6-[3-(3,4-Difluoro-phenyl)-5-hydroxymethyl-isoxazol-4-ylmethoxy]-N-(2,2,2-trifluoro-1-methyl-ethyl)-nicotinamide] | 1.8
O=C(NCC1CC1)c1ccc(OCc2c(-c3ccc(F)c(F)c3)noc2CO)nc1 [Example 30, N-Cyclopropylmethyl-6-[3-(3,4-difluoro-phenyl)-5-hydroxymethyl-isoxazol-4-ylmethoxy]-nicotinamide] | 4
O=C(c1ccc(OCc2c(-c3ccc(Cl)cc3)noc2CO)nc1)N1CCS(=O)(=O)CC1 [Example 18, {6-[3-(4-Chloro-phenyl)-5-hydroxymethyl-isoxazol-4-ylmethoxy]-pyridin-3-yl}-(1,1-dioxo-1-thiomorpholin-4-yl)-methanone] | 3.5
CCCCc1noc(CO)c1COc1ccc(C(=O)NCC(F)(F)F)cn1 [Example 51, 6-(3-Butyl-5-hydroxymethyl-isoxazol-4-ylmethoxy)-N-(2,2,2-trifluoroethyl)-nicotinamide] | 10.2
O=C(NC1CCOCC1)c1ccc(OCc2c(-c3ccc(F)cc3)noc2CO)nc1 [Example 5, 6-[3-(4-Fluoro-phenyl)-5-hydroxymethyl-isoxazol-4-ylmethoxy]-N-(tetrahydro-pyran-4-yl)-nicotinamide] | 1.3
CC(C)(CO)NC(=O)c1ccc(OCc2c(-c3ccc(Cl)cc3)noc2CO)nc1 [Example 23, 6-[3-(4-Chloro-phenyl)-5-hydroxymethyl-isoxazol-4-ylmethoxy]-N-(2-hydroxy-1,1-dimethyl-ethyl)-nicotinamide] | 3.9
CC(C)NC(=O)c1ccc(OCc2c(-c3ccc(F)c(F)c3)noc2CO)nc1 [Example 28, 6-[3-(3,4-Difluoro-phenyl)-5-hydroxymethyl-isoxazol-4-ylmethoxy]-N-isopropyl-nicotinamide] | 1.5
CC[C@@H](CO)NC(=O)c1ccc(OCc2c(-c3ccc(F)cc3)noc2CO)nc1 [Example 15, 6-[3-(4-Fluoro-phenyl)-5-hydroxymethyl-isoxazol-4-ylmethoxy]-N-((S)-1-hydroxymethyl-propyl)-nicotinamide] | 0.6
CCCCc1noc(CO)c1COc1ccc(C(=O)NC2CCC2)cn1 [Example 52, 6-(3-Butyl-5-hydroxymethyl-isoxazol-4-ylmethoxy)-N-cyclobutyl-nicotinamide] | 13.7
CC[C@@H](CO)NC(=O)c1ccc(OCc2c(-c3ccc(F)c(F)c3)noc2CO)nc1 [Example 38, 6-[3-(3,4-Difluoro-phenyl)-5-hydroxymethyl-isoxazol-4-ylmethoxy]-N-([S]-1-hydroxymethyl-propyl)-nicotinamide] | 1.3
C[C@H](NC(=O)c1ccc(OCc2c(-c3ccc(Cl)cc3)noc2CO)nc1)C(F)(F)F [Example 25, 6-[3-(4-Chloro-phenyl)-5-hydroxymethyl-isoxazol-4-ylmethoxy]-N-([S]-2,2,2-trifluoro-1-methyl-ethyl)-nicotinamide] | 1.7
CCCCc1noc(CO)c1COc1ccc(C(=O)NC(C)C)cn1 [Example 49, 6-(3-Butyl-5-hydroxymethyl-isoxazol-4-ylmethoxy)-N-isopropyl-nicotinamide] | 16
O=C(NC1CC1)c1ccc(OCc2c(-c3ccc(F)cc3)noc2CO)nc1 [Example 8, N-Cyclopropyl-6-[3-(4-fluoro-phenyl)-5-hydroxymethyl-isoxazol-4-ylmethoxy]-nicotinamide] | 1.7
O=C(c1ccc(OCc2c(-c3ccc(F)cc3)noc2CO)nc1)N1CCS(=O)(=O)CC1 [Example 3, (1,1-Dioxo-1,6-thiomorpholin-4-yl)-{6-[3-(4-fluoro-phenyl)-5-hydroxymethyl-isoxazol-4-ylmethoxy]-pyridin-3-yl}-methanone] | 8.6
Cn1cc(NC(=O)c2ccc(OCc3c(-c4ccc(F)cc4)noc3CO)nc2)cn1 [Example 16, 6-[3-(4-Fluoro-phenyl)-5-hydroxymethyl-isoxazol-4-ylmethoxy]-N-(1-methyl-1H-pyrazol-4-yl)-nicotinamide] | 0.9
CCCCc1noc(CO)c1COc1ccc(C(=O)NC2(C)COC2)cn1 [Example 50, 6-(3-Butyl-5-hydroxymethyl-isoxazol-4-ylmethoxy)-N-(3-methyloxetan-3-yl)-nicotinamide] | 8.7
O=C(NCC(F)(F)F)c1ccc(OCc2c(-c3ccc(Cl)cc3)noc2CO)nc1 [Example 21, 6-[3-(4-Chloro-phenyl)-5-hydroxymethyl-isoxazol-4-ylmethoxy]-N-(2,2,2-trifluoro-ethyl)-nicotinamide] | 2
O=C(NC1CCOC1)c1ccc(OCc2c(-c3ccccn3)noc2CO)nc1 (stereo not drawn) [Example 45, 6-(5-Hydroxymethyl-3-pyridin-2-yl-isoxazol-4-ylmethoxy)-N-(tetrahydrofuran-3-yl)-nicotinamide] | 1.8
